From ChEMBL document CHEMBL1201862, “PubChem BioAssay data set” (2004)
Active and inactive are the calls of the source. Rule as the data show it, for most assays here: actives have a measured EC50 and inactives only a lower limit.

How the values were obtained:
[1] = NIH-3T3 fibroblast cytotoxicity, dose response, cytotoxicity control, cell-based, fluorescence, Alamar Blue, secondary assay (AID 2327); assay type: functional;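 also: NIH-3T3 mouse fibroblasts cultured with fluconazole at 8 µg/mL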
[2] = C. albicans growth with fluconazole, confirmation, fluorescence, retest (AID 2467); assay type: functional, cell-based
[3] = molecular target: Serine/threonine-protein phosphatase (Candida dubliniensis (strain CD36 / CBS 7987 / NCPF 3949 / NRRLY-17841) (Yeast), UniProt B9W6M3); assay: calcineurin pathway inhibitors in yeast reporter, dose response, S. cerevisiae, CDRE-lacZ, luminescence, secondary (AID 2388); assay type: functional, cell-based;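 also: yeast reporter cells carrying a calcineurin-responsive lacZ construct stimulated with calcium chloride; luminescent beta-galactosidase reporter signal in whole cells rather than isolated phosphatase activity; potency for inhibition where a drop in reporter signal means calcineurin blockade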
Chain of Serine/threonine-protein phosphatase (B9W6M3 whole entry, the tested form may be a part): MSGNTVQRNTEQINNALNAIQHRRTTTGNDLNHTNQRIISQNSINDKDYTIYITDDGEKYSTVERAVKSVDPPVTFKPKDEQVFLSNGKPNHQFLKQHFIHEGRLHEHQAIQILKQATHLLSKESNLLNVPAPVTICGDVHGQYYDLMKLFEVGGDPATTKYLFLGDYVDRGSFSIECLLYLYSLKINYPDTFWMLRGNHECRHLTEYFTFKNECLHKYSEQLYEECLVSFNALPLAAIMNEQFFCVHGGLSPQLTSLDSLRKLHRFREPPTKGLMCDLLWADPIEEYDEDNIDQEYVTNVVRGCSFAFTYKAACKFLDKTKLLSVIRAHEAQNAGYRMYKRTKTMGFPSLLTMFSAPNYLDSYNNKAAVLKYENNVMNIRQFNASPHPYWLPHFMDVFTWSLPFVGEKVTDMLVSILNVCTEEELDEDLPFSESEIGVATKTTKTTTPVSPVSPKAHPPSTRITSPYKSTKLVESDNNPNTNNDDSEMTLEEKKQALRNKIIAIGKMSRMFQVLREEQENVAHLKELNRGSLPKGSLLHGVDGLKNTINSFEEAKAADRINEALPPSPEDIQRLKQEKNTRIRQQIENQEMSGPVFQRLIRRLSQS

[4] = molecular target: NACHT, LRR and PYD domains-containing protein 3 (Homo sapiens, UniProt Q96P20); assay: NALP3 inhibitors in yeast, dose response, luminescent (AID 488799); assay type: functional
Chain of NACHT, LRR and PYD domains-containing protein 3 (Q96P20 whole entry, the tested form may be a part): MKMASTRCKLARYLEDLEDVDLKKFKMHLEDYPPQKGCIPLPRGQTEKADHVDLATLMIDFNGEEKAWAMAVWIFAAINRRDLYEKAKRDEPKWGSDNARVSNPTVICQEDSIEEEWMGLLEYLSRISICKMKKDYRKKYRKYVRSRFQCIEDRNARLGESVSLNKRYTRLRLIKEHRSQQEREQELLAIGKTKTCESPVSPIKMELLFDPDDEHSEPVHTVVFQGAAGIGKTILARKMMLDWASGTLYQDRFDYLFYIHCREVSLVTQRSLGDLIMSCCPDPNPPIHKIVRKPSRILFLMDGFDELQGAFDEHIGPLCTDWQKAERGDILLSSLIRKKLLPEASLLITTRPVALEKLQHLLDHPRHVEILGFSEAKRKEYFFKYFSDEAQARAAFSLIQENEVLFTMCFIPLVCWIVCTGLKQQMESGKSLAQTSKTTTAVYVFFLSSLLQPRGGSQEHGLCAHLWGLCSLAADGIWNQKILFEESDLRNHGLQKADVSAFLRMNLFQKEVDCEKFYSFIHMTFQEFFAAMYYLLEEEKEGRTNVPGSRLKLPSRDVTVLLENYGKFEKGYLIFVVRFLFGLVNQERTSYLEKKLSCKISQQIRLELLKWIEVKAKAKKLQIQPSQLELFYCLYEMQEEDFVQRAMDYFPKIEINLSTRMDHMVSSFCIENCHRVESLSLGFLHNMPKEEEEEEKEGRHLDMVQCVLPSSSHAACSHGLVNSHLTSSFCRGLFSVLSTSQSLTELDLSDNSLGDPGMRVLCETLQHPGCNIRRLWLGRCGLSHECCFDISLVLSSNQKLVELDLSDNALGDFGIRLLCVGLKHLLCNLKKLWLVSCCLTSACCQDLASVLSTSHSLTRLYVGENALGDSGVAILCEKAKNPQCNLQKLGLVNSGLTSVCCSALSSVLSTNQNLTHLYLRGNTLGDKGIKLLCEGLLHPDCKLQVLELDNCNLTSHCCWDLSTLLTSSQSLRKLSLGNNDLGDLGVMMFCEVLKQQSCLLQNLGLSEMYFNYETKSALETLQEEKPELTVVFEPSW

[5] = molecular target: ATP-dependent molecular chaperone HSP82 (Candida albicans (strain WO-1) (Yeast), UniProt C4YTQ8); assay: loss of DOC-induced GRE-beta-galactosidase reporter signal, dose response, Hsp90 inhibitor project, S. cerevisiae, luminescence (AID 2400); assay type: functional, cell-based;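 also: beta-galactosidase luminescence from glucocorticoid response element reporter as proxy for Hsp90 function; inhibitor potency where signal loss means Hsp90 inhibition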
Chain of ATP-dependent molecular chaperone HSP82 (C4YTQ8 whole entry): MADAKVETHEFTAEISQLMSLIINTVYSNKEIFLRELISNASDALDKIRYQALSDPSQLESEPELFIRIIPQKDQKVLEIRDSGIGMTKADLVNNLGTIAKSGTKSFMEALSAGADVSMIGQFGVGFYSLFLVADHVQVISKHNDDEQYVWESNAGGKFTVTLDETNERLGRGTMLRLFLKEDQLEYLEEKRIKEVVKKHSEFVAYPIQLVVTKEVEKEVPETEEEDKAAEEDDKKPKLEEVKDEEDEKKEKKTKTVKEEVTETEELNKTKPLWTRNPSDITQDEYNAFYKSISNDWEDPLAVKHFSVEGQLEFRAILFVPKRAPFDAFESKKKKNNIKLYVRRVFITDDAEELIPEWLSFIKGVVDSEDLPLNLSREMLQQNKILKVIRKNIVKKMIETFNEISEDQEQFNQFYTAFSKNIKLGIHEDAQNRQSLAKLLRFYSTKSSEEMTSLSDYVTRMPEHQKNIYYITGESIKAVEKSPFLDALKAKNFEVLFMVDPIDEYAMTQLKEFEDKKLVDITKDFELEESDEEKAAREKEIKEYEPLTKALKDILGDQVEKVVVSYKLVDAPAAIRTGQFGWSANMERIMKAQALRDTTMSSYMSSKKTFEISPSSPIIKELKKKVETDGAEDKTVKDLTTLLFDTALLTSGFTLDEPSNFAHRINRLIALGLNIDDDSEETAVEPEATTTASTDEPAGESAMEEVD

[6] = molecular target: T1, Corticotropin-releasing factor receptor 2/Corticotropin-releasing factor-binding protein (Homo sapiens, UniProt P24387+Q13324); assay: activators of CRF receptor 2 with binding protein – uHTS hits, confirmation (AID 602473); assay type: functional; settings: read-out: EC50_Mean
T1 sequence (Q13324 whole entry): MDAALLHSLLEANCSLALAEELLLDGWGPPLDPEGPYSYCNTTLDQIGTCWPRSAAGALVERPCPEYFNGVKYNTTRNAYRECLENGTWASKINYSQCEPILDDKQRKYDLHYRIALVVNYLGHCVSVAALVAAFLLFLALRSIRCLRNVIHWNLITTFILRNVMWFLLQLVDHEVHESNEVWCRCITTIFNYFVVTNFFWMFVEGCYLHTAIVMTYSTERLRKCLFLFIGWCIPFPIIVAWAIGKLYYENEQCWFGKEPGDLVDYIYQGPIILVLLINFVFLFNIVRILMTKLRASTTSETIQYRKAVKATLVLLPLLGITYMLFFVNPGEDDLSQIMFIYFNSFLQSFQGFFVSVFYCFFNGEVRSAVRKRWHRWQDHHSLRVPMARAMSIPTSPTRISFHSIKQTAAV
T1 sequence (P24387 whole entry): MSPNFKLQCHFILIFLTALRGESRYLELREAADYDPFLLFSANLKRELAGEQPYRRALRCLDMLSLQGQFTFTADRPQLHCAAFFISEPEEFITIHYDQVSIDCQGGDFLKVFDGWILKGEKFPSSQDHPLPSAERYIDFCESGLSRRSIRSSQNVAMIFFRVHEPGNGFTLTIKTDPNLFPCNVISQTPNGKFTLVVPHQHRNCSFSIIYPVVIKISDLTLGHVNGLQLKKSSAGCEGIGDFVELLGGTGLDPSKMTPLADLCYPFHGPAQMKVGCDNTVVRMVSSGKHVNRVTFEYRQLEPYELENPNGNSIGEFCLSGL

HEK293 = assay: cells; assay type: functional, cell-based; settings: Homo sapiens
[7] = molecular target: T2, Nuclear receptor subfamily 0 group B member 1 (Homo sapiens, UniProt P51843); assay: Luminescence-based cell-based high throughput dose response assay for inhibitors of the orphan nuclear receptor subfamily 0, group B, member 1 (DAX1; NR0B1). [Related pubchem assays (depositor defined):AID504766, AID504790]; assay type: functional
T2 sequence (P51843 whole entry): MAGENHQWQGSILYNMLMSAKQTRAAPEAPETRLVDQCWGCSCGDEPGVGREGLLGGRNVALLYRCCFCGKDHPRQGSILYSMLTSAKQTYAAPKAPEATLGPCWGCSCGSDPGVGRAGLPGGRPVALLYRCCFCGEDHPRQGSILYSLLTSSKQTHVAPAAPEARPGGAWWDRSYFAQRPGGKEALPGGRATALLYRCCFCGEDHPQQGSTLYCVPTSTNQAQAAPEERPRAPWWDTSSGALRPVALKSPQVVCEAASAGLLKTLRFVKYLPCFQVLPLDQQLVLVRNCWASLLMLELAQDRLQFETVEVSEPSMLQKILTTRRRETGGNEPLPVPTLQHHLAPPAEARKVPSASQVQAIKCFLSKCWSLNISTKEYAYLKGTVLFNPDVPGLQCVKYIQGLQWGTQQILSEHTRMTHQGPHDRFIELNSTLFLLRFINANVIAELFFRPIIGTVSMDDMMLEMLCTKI

Hexokinase-1 = molecular target: T3, Hexokinase-1 (Homo sapiens, UniProt P19367); assay: SAR analysis of small molecule inhibitors of hexokinase domain containing I (HKDC1) in the hexokinase 1 selectivity assay. [Related pubchem assays (depositor defined):AID493160, AID493190]; assay type: functional
T3 sequence (P19367 whole entry): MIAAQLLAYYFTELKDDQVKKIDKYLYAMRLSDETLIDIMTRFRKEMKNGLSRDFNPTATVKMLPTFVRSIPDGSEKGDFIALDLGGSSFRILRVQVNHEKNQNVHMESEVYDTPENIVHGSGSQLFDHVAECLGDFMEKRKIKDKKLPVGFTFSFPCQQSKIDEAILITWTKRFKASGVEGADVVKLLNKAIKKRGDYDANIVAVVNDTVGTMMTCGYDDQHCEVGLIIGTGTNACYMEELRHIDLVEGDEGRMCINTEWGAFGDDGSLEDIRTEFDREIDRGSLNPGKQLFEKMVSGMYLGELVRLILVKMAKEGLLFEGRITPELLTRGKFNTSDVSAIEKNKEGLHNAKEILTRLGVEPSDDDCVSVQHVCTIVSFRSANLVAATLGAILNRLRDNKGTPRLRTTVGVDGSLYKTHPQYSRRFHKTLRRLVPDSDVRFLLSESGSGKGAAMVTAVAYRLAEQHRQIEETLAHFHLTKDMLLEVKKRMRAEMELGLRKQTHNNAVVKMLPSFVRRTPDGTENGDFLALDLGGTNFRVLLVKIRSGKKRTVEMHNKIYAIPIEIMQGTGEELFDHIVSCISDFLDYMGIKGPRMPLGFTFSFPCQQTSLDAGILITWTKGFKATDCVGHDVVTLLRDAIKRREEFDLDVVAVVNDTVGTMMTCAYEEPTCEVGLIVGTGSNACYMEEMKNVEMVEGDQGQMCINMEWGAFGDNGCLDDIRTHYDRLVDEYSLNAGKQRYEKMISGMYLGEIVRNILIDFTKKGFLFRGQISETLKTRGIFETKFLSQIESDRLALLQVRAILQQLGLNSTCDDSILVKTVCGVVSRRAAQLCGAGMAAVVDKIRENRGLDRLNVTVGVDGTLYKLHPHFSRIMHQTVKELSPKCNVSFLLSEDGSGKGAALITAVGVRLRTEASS

Hexokinase HKDC1 = molecular target: T4, Hexokinase HKDC1 (Homo sapiens, UniProt Q2TB90); assay: SAR analysis of small molecule inhibitors of hexokinase domain containing I (HKDC1). [Related pubchem assays (depositor defined):AID493160, AID493190]; assay type: functional
T4 sequence (Q2TB90 whole entry): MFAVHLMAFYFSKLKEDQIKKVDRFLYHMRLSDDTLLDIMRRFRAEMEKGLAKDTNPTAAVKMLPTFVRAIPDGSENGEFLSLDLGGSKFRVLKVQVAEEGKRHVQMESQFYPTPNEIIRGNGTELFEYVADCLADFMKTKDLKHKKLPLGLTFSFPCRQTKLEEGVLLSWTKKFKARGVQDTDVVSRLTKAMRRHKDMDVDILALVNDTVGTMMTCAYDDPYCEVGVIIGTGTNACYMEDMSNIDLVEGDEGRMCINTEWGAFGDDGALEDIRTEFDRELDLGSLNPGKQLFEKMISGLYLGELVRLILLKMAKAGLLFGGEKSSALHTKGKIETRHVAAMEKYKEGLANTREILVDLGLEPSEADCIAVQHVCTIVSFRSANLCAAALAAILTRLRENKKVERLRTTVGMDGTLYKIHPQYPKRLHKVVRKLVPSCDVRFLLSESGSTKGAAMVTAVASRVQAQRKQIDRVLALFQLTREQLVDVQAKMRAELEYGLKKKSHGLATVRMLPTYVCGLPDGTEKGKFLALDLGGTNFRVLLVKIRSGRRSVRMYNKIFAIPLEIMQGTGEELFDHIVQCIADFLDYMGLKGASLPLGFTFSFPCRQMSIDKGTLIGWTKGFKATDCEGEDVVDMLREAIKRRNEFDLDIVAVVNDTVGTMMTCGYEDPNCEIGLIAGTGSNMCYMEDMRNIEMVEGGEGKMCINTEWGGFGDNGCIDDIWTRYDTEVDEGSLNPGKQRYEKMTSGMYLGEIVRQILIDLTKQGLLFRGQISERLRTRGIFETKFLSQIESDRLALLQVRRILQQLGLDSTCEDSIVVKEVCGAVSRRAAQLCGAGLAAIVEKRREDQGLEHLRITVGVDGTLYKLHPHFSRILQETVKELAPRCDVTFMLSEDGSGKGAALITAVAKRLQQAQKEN

[8] = tested on: Streptococcus sp. 'group A'; assay: growth inhibition of control SK(-) GAS strain, dose response, counter-screen for streptokinase expression inhibitor project, luminescence, kanamycin, BacTiterGlo, confirmation (AID 1900); assay type: functional, organism-based
BJ [9] = assay: cytotoxicity toward BJ-TERT fibroblasts, dose response, cell-based, RAS-independent, luminescence (AID 1933); assay type: functional; settings: Homo sapiens
Streptokinase A = molecular target: T5, Streptokinase A (Streptococcus pyogenes serotype M1, UniProt P10520); assay: S. pyogenes streptokinase expression inhibitors, potency, dose response, plasminogen activation absorbance, OD405 (AID 1914); assay type: functional, Streptococcus pyogenes M1 GAS;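 also: secreted streptokinase activity via plasminogen activation per viability signal from cell pellet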
T5 sequence (P10520 whole entry): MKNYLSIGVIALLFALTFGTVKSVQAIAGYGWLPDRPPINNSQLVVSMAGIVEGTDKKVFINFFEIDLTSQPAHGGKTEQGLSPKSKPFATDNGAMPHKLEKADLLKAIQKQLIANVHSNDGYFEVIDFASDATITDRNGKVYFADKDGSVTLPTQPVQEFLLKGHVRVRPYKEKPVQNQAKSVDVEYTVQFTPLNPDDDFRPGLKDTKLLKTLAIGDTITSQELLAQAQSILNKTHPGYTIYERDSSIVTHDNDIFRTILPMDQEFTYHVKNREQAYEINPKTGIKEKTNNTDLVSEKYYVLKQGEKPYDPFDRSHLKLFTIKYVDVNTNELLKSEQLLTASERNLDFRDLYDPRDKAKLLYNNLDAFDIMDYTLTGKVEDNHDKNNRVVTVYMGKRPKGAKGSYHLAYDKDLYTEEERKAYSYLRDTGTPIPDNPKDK

BJ [10] = assay: cells; assay type: functional, cell-based; settings: Homo sapiens
[11] = inhibitors of intracellular T. cruzi replication, confirmation, NIH3T3 host cells, beta-gal luminescence (AID 2044); assay type: functional, cell-based;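 also: intracellular parasites grown in NIH/3T3 mouse fibroblasts as host cells; luminescent beta-galactosidase reporter signal from transgenic T. cruzi replicating inside host cells; inhibitors lower the luminescence signal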
[12] = cytotoxicity toward NIH3T3 fibroblasts, dose response, counter-screen, cell-based, ATP luminescence, mouse fibroblasts (AID 2010); assay type: functional;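 also: cells exposed to compound for about 90 hours before reading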
BJ [13] = assay: cytotoxicity toward BJ-TERT-LT-ST fibroblasts, dose response, cell-based, RAS-independent, luminescence (AID 1935); assay type: functional; settings: Homo sapiens;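 also: BJ fibroblasts immortalized with TERT plus LT and ST oncogenes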
[14] = cytotoxicity toward DRD oncogenic fibroblasts, dose response, cell-based, non-viral oncogenic, luminescence (AID 1934); assay type: functional; settings: Homo sapiens
Streptococcus = assay: Group A Streptococcus viability loss, dose response, counter-screen for streptokinase expression inhibitor project, luminescence, BacTiterGlo (AID 1915); assay type: functional, organism-based;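 also: potency for reduction of bacterial viability or growth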
INS1 = assay: beta cell apoptosis inhibitors, cytokine rescue, dose response, luminescence, retest (AID 449756); assay type: functional, cell-based; settings: Rattus norvegicus;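 also: cell death triggered by IL-1 beta plus TNF-alpha plus IFN-gamma mixture; protective hits raise ATP signal compared with cytokine alone wells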
[15] = Luminescence Cell-Based Dose Response to Identify Activators of 5'UTR Stem-Loop Driven Prion Protein mRNA Translation in H4-C Neuroglioblastoma Cells. [Related pubchem assays: 1829 (Project Summary), 1814 (Primary HTS)]; assay type: functional
[16] = Luminescence Cell-Based Dose Confirmation HTS to Identify Activators of 5'UTR Stem-Loop Driven Alpha-Synuclein mRNA Translation in H4 Neuroglioblastoma Cells. [Related pubchem assays: 1829 (Project Summary), 1814 (Primary HTS)]; assay type: functional
[17] = Luminescence Cell-Based Dose Response HTS to Identify Activators of Luciferase Translation or Activity in H4 […] Cells. [Related pubchem assays: 1829 (Project Summary), 1814 (Primary HTS)]; assay type: functional
H4 = assay: Luminescence Cell-Based Dose Response HTS to Identify Activators of 5'UTR Stem-Loop Driven Prion Protein mRNA Translation in H4 Neuroglioblastoma Cells. [Related pubchem assays: 1829 (Project Summary), 1814 (Primary HTS)]; assay type: functional; settings: Homo sapiens
[18] = Luminescence Cell-Based Dose Response to Identify Activators of Luciferase Translation or Activity in H4-C Neuroglioblastoma Cells. [Related pubchem assays: 1829 (Project Summary), 1814 (Primary HTS)]; assay type: functional
[19] = Luminescence Cell-Based Dose Confirmation to Identify Activators of 5'UTR Stem-Loop Driven Alpha-Synuclein mRNA Translation in H4 Neuroglioblastoma Cells. [Related pubchem assays: 1829 (Project Summary), 1814 (Primary HTS)]; assay type: functional

O=C(NNC(=S)NC(=O)c1ccc(Br)cc1)c1ccc([N+](=O)[O-])cc1
EC50 [1]: > 160 µM (inconclusive) | EC50 [2]: 0.198 µM (active) | EC50 [3]: > 180 µM (inactive) | IC50 [4]: 5.63 µM (active) | EC50 [5]: > 160 µM (inactive) | EC50 [6]: 5.32 µM (active)

O=C(CSC(=S)N1CCCCC1)c1c(F)cccc1F
IC50 (HEK293): > 67.5 µM (inactive) | IC50 [7]: > 67.5 µM (inactive)

O=C(Nc1nnc(SCc2ccccc2)s1)c1ccc2ncsc2c1
IC50 (Hexokinase-1): > 80 µM (inactive) | IC50 (Hexokinase HKDC1): > 80 µM (inactive)

Nc1nonc1-n1nnc(C(=O)N/N=C/c2cc(Cl)ccc2O)c1CN1CCCCCC1
EC50 [1]: 29.6 µM (active) | EC50 [8]: 4.87 µM (active) | EC50 (BJ [9]): 24.9 µM (active) | EC50 (Streptokinase A): > 150 µM (not active) | EC50 (BJ [10]): 115 µM (active) | EC50 [2]: 0.296 µM (active) | EC50 [11]: 1.39 µM (active) | EC50 [3]: > 180 µM (inactive) | EC50 [12]: 6.91 µM (active) | EC50 (BJ [13]): > 75 µM (not active) | EC50 [14]: 55.4 µM (active) | EC50 (Streptococcus): 20.4 µM (active) | AC50 (INS1): 1.85 µM (active) | EC50 [5]: > 150 µM (inactive)

COc1ccc(C(=O)C[n+]2ccc3ccccc3c2C)cc1
EC50 [15]: 0.646 µM (active) | EC50 [16]: < 0.1 µM (active) | EC50 [17]: 0.235 µM (active) | EC50 (H4): > 120 µM (not active) | EC50 [18]: 0.402 µM (active) | EC50 [19]: 0.375 µM (active) | IC50 (HEK293): > 67.5 µM (inactive) | IC50 [7]: > 67.5 µM (inactive)
